# Laboratory results taken from patent US11427553B2, “Dihydrooxadiazinones” (Bayer Aktiengesellschaft, priority 2017, dated 2022).
# pIC50: −log10 of the molar value.
# Tests used:
# [1] = test system: HeLa cells; assay: Assay 1 cell proliferation measurement (CTG, 72 h), HeLa; format: cell-based, human; details: Homo sapiens, HeLa; Assay 1, 72 h, Cell Titer Glo; read-out: HeLa IC50 [nM] (Cervical cancer)
# Method: Cell Proliferation Measurement
# The antiproliferative activity of the compounds of the general formula (I) was examined in vitro in human cancer cells. For this purpose, the appropriate number of cells (Hela: 800; SK-MEL-3: 1000; A549: 800) were plated in 384-well plates with appropriate growth medium ((A549: DMEM/Ham's F12 (Biochrom; #FG 4815 with stabile Glutamine), FCS 10% final (Biochrom; #S 0415); Hela: DMEM/Ham's F12 (Biochrom; #FG 4815 with stabile Glutamine), FCS 10% final (Biochrom; #S 0415); SK-MEL-3: McCoy's 5A (Biochrom; #F 1015), FCS 10% final (Biochrom; #S 0415), L-Alanyl-L-Glutamine final: 2 mM, (Biochrom; #K 0302)) and incubated at 37° C. overnight. After 24 h, cells on one plate (0 h plate) were treated with 30 μl/cavity of CTG solution (Promega Cell Titer Glo (catalogue #G755B and G756B)) and incubated at room temperature for 10 min, and luminescence was measured by means of a VICTOR V (Perkin Elmer), in order to determine cell viability on commencement of treatment. The cells on the test plate were treated with the compounds of the general formula (I) as and incubated at 37° C. for 72 h. The compounds were added to the cells by means of an HP D300 digital dispenser in a 10-step 2.5-fold dilution series generally starting at a maximum final drug concentration of 100 nM. As control, the cells were treated with vehicle (DMSO at 0.3% final concentration). After 72 h, the cells were treated with 30 μl/cavity of CTG solution (Promega Cell Titer Glo (catalogue #G755B and G756B)) and incubated at room temperature for 10 min. and luminescence was measured by means of a VICTOR V (Perkin Elmer), in order to determine cell viability at the end of treatment. The percentage effect on cell growth and the IC50 derived therefrom were determined for each test substance using the values from the 0 h plate […] and the DMSO control […]. The IC50 values were calculated using a 4-parameter fit.
# [2] = target: human full length PDE3A (Homo sapiens (Human), UniProt Q14432); assay: Assay 4 PDE3A enzyme inhibition (3H-cAMP SPA); format: biochemical; details: Sf9 cell extract
# Sequence of human full length PDE3A (Q14432 whole entry): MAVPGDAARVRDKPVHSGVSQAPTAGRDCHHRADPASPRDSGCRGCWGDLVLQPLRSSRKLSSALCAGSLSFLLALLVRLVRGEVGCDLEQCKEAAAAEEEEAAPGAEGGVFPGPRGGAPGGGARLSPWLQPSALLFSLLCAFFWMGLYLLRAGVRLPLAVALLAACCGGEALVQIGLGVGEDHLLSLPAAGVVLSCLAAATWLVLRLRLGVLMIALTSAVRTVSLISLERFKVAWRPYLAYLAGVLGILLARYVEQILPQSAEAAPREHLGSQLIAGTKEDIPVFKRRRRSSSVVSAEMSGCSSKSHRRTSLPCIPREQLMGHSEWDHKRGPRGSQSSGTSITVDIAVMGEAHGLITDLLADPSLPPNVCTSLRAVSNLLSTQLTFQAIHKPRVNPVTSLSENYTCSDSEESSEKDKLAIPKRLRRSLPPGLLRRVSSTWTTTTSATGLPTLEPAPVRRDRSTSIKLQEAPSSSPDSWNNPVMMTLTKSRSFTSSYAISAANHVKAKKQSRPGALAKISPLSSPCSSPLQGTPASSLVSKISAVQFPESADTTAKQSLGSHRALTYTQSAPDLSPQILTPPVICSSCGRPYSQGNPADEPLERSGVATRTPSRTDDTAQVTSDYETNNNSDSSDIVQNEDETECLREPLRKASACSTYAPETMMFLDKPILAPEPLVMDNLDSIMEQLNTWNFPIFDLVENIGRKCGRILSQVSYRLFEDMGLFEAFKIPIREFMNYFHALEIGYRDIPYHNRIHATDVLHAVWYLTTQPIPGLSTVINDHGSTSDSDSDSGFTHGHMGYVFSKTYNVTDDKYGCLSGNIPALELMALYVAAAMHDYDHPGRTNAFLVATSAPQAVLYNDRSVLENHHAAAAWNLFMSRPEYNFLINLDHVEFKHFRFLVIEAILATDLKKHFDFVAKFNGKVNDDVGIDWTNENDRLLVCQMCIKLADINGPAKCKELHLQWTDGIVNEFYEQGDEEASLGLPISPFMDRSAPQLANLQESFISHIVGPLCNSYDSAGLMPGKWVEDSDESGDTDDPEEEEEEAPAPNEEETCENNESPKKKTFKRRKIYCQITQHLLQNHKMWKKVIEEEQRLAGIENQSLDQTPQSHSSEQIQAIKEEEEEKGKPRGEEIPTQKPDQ
# Method: Assay 4 Method for PDE3A Enzyme Inhibition
# (§1) The commercially available 3H-cAMP Scintillation Proximity Assay (SPA, Perkin Elmer) system was used for enzyme inhibition studies. For the determination of the in vitro effect of example compounds on the PDE3A reactions 2 μl of the respective example compound solution in DMSO (serial dilutions) were placed in wells of microtiter plates (Isoplate-96/200W; Perkin Elmer). 50 μl of a dilution of PDE3A cell extract from Sf9 cells overexpressing human full length PDE3A (SB Drug Discovery, UK) in buffer A (50 mM Tris/HCl pH 7.5, 8.3 mM MgCl2, 1.7 mM EDTA, 0.2% BSA) was added. The dilution of the PDE3A cell extract was chosen such that the reaction kinetics was linear and less than 70% of the substrate was consumed (typical dilution 1:5000). The reaction was started by addition of 50 μl (0.025 μCi) of 1:2000 in buffer A w/o BSA diluted substrate [8-3H]adenosine 3′, 5′-cyclic phosphate (1 μCi/μl; Perkin Elmer). After incubation at room temperature for 60 min, the reaction was stopped by addition of 25 μl of a suspension containing 18 mg/ml yttrium scintillation proximity beads (Perkin Elmer) in water. The microtiter plates were sealed and measured in a Microbeta scintillation counter (PerkinElmer Wallac). IC50 values were determined from sigmoidal curves by plotting percentage PDE3A activity vs log compound concentration.
# [3] = target: human full length PDE3B (Homo sapiens (Human), UniProt Q13370); assay: Assay 5 PDE3B enzyme inhibition (3H-cAMP SPA); format: biochemical; details: Sf9 cell extract
# Sequence of human full length PDE3B (Q13370 whole entry): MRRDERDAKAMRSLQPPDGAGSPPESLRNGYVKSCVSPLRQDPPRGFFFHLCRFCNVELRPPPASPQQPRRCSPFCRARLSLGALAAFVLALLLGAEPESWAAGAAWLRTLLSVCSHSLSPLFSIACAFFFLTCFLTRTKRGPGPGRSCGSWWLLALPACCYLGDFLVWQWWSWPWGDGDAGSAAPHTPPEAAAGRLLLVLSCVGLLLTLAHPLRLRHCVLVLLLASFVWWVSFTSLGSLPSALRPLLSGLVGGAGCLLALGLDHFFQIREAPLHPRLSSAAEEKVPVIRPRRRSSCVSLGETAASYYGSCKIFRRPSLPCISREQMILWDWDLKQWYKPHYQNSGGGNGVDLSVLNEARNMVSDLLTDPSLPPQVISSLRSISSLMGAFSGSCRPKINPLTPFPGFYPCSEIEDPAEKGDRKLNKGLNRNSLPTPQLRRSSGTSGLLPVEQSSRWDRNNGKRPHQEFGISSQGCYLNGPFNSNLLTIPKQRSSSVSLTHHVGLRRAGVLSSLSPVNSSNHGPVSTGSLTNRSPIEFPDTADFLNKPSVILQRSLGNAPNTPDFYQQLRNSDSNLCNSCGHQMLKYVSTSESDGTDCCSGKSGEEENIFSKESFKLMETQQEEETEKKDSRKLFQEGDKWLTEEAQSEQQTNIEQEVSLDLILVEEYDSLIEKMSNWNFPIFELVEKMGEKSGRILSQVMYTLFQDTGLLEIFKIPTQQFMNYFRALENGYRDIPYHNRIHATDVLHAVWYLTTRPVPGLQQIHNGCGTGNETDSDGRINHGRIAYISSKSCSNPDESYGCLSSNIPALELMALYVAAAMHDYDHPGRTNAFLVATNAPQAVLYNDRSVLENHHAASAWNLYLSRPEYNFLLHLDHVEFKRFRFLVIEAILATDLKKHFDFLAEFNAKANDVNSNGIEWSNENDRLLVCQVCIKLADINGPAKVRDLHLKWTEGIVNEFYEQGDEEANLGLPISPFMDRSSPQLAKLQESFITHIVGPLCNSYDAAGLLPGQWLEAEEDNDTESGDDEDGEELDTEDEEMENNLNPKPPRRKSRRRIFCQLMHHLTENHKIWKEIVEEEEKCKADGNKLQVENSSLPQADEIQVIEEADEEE
# Method: as §1, with “PDE3B” for “PDE3A”, “1:6000).” for “1:5000).”
Compound,IC50 [1] [nM],pIC50 [2],pIC50 [3]
"O=C1NN=C(c2ccc(N3CCCC(O)C3)c(C(F)(F)F)c2)CO1 (racemic) [Example 229, (rac)-5-[4-(3-hydroxypiperidin-1-yl)-3-(trifluoromethyl)phenyl]-3,6-dihydro-2H-1,3,4-oxadiazin-2-one]",1,7.09,7.17
"NC(=O)C1CCCN(c2ccc(C3=NNC(=O)OC3)cc2C(F)(F)F)C1 (racemic) [Example 230, (rac)-1-[4-(2-Oxo-3,6-dihydro-2H-1,3,4-oxadiazin-5-yl)-2-(trifluoromethyl)phenyl]piperidine-3-carboxamide]",7,7.24,7.00
"COCC(O)CNc1ccc(C2=NNC(=O)OC2)cc1C(F)(F)F (racemic) [Example 235, (rac)-5-{4-[(2-Hydroxy-3-methoxypropyl)amino]-3-(trifluoromethyl)phenyl}-3,6-dihydro-2H-1,3,4-oxadiazin-2-one]",4,6.77,6.74
"CCOC(C)CNc1ccc(C2=NNC(=O)OC2)cc1C(F)(F)F (racemic) [Example 241, (rac)-5-{4-[(2-Ethoxypropyl)amino]-3-(trifluoromethyl)phenyl}-3,6-dihydro-2H-1,3,4-oxadiazin-2-one]",6,7.18,6.89
"COC(C)CNc1ccc(C2=NNC(=O)OC2)cc1C(F)(F)F (racemic) [Example 242, (rac)-5-{4-[(2-Methoxypropyl)amino]-3-(trifluoromethyl)phenyl}-3,6-dihydro-2H-1,3,4-oxadiazin-2-one]",2,7.04,6.89
"O=C1NN=C(c2ccc(N3CCC(O)CC3)c(C(F)(F)F)c2)CO1 [Example 227, 5-[4-(4-Hydroxypiperidin-1-yl)-3-(trifluoromethyl)phenyl]-3,6-dihydro-2H-1,3,4-oxadiazin-2-one]",1,7.89,8.05
"CC[C@@H](CO)Nc1ccc(C2=NNC(=O)OC2)cc1C(F)(F)F [Example 228, 5-[4-{[(2S)-1-Hydroxybutan-2-yl]amino}-3-(trifluoromethyl)phenyl]-3,6-dihydro-2H-1,3,4-oxadiazin-2-one]",7,6.40,6.04
"CC(C)(CO)CNc1ccc(C2=NNC(=O)OC2)cc1C(F)(F)F [Example 231, 5-{4-[(3-Hydroxy-2,2-dimethylpropyl)amino]-3-(trifluoromethyl)phenyl}-3,6-dihydro-2H-1,3,4-oxadiazin-2-one]",2,7.00,6.96
"O=C1NN=C(c2ccc(N[C@@H]3C[C@@H]4CC[C@@H]3C4)c(C(F)(F)F)c2)CO1 [Example 233, 5-[4-{[(1R,2R,4R)-Bicyclo[2.2.1]heptan-2-yl]amino}-3-(trifluoromethyl)phenyl]-3,6-dihydro-2H-1,3,4-oxadiazin-2-one]",8,7.07,6.60
"O=C1NN=C(c2ccc(N3CC[C@H](O)C3)c(C(F)(F)F)c2)CO1 [Example 234, 5-{4-[(3S)-3-Hydroxypyrrolidin-1-yl]-3-(trifluoromethyl)phenyl}-3,6-dihydro-2H-1,3,4-oxadiazin-2-one]",2,7.11,7.14
"Cn1nccc1CNc1ccc(C2=NNC(=O)OC2)cc1C(F)(F)F [Example 236, 5-[4-{[(1-Methyl-1H-pyrazol-5-yl)methyl]amino}-3-(trifluoromethyl)phenyl]-3,6-dihydro-2H-1,3,4-oxadiazin-2-one]",4,7.35,7.27
"O=C1NN=C(c2ccc(NCc3cc[nH]n3)c(C(F)(F)F)c2)CO1 [Example 237, 5-[4-{[(1H-Pyrazol-3-yl)methyl]amino}-3-(trifluoromethyl)phenyl]-3,6-dihydro-2H-1,3,4-oxadiazin-2-one]",0.4,6.92,6.85
"O=C1NN=C(c2ccc(NCCn3cccn3)c(C(F)(F)F)c2)CO1 [Example 238, 5-[4-{[2-(1H-Pyrazol-1-yl)ethyl]amino}-3-(trifluoromethyl)phenyl]-3,6-dihydro-2H-1,3,4-oxadiazin-2-one]",7,7.06,6.52

# Continued, values first:
IC50 [1] [nM],pIC50 [2],pIC50 [3],Compound
3,7.12,7.00,"O=C1NN=C(c2ccc(NCC3CCOC3)c(C(F)(F)F)c2)CO1 (racemic) [Example 245, (rac)-5-[4-{[(Oxolan-3-yl)methyl]amino}-3-(trifluoromethyl)phenyl]-3,6-dihydro-2H-1,3,4-oxadiazin-2-one]"
10,7.19,6.74,"O=C1CCC(CNc2ccc(C3=NNC(=O)OC3)cc2C(F)(F)F)CN1 (racemic) [Example 247, (rac)-5-[4-{[(6-Oxopiperidin-3-yl)methyl]amino}-3-(trifluoromethyl)phenyl]-3,6-dihydro-2H-1,3,4-oxadiazin-2-one]"
6,7.21,6.85,"CC1(C)CC1CNc1ccc(C2=NNC(=O)OC2)cc1C(F)(F)F (racemic) [Example 248, (rac)-5-[4-{[(2,2-Dimethylcyclopropyl)methyl]amino}-3-(trifluoromethyl)phenyl]-3,6-dihydro-2H-1,3,4-oxadiazin-2-one]"
> 100,–,–,"CCN(CCC#N)c1ccc(C2=NNC(=O)OC2)cc1C(F)(F)F [Example 314, 3-{ethyl[4-(2-oxo-3,6-dihydro-2H-1,3,4-oxadiazin-5-yl)-2-(trifluoromethyl)phenyl]amino}propanenitrile]"
> 100,–,–,"CCN1CCCC1CNc1ccc(C2=NNC(=O)OC2)cc1C(F)(F)F (centres unmarked) [Example 315, 5-[4-{[(1-ethylpyrrolidin-2-yl)methyl]amino}-3-(trifluoromethyl)phenyl]-3,6-dihydro-2H-1,3,4-oxadiazin-2-one]"
> 100,–,–,"CC(=O)NCCNc1ccc(C2=NNC(=O)OC2)cc1C(F)(F)F [Example 316, N-{2-[4-(2-oxo-3,6-dihydro-2H-1,3,4-oxadiazin-5-yl)-2-(trifluoromethyl)anilino]ethyl}acetamide]"
> 100,–,–,"O=C1NN=C(c2ccc(NCCN3CCCCC3)c(C(F)(F)F)c2)CO1 [Example 317, 5-[4-{[2-(piperidin-1-yl)ethyl]amino}-3-(trifluoromethyl)phenyl]-3,6-dihydro-2H-1,3,4-oxadiazin-2-one]"
> 100,–,–,"CN1CCCC1CCNc1ccc(C2=NNC(=O)OC2)cc1C(F)(F)F (centres unmarked) [Example 318, 5-[4-{[2-(1-methylpyrrolidin-2-yl)ethyl]amino}-3-(trifluoromethyl)phenyl]-3,6-dihydro-2H-1,3,4-oxadiazin-2-one]"
